Drawing on ChEMBL document CHEMBL3272159, “Synthesis and antihypertensive activity of 1-amino-3,4-dihydroisoquinolines” (1977), this text covers ED50 for 26 molecules.

What is called ED50 is the dose at which the effect has come halfway, by size or by number of responders.

The subject of this assay is Rattus norvegicus. Description: Antihypertensive activity in po dosed renal hypertensive rat assessed as dose required to produce lowering of blood pressure to <= 130 mm after 2 to 24 hrs by photoelectric tensometric analysis. In kind it is functional.
Consider `COc1cc(/C=N/NC2=NCCc3ccccc32)cc(OC)c1O.Cl`, for which the ED50 was over 50 mg/kg.
With `NNC1=NCCc2ccccc21` the figure was 30 mg/kg; with `F[B-](F)(F)F.[NH3+]NC1=NCC(O)c2ccccc21` (stereo unspecified), over 50 mg/kg; with `Cl.NC1=NCCc2ccccc21`, over 50 mg/kg.
With `CCCCCCNC1=NCCc2ccccc21.O=S(=O)(O)O` the figure was over 50 mg/kg; with `CN(C)CCNC1=NCCc2ccccc21.Cl`, over 50 mg/kg; with `O=S(=O)(O)O.c1ccc2c(c1)CCN=C2NCc1ccncc1`, over 50 mg/kg.
For `COc1ccc(CCNC2=NCCc3ccccc32)cc1OC.O=S(=O)(O)O`, the 50% effective dose (ED50) is over 50 mg/kg.
With `O=S(=O)(O)O.c1ccc2c(c1)CCN=C2NCCc1ccc2c(c1)OCO2` the figure was over 50 mg/kg; with `Nc1ccc(CCNC2=NCCc3ccccc32)cc1Cl.O=S(=O)(O)O`, over 50 mg/kg; with `COc1cc(CCNC2=NCCc3ccccc32)cc(OC)c1OC.O=S(=O)(O)O`, over 50 mg/kg.
As to `Cl.Oc1ccc(CCNC2=NCCc3ccccc32)cc1O`, the ED50 was over 50 mg/kg.
Take `CCN(CC)CCOc1ccc(CNC2=NCCc3ccccc32)cc1.O=S(=O)(O)c1cccc2c(S(=O)(=O)O)cccc12`: the ED50 is over 50 mg/kg.
Regarding `COc1ccc(NC2=NCCc3ccccc32)cc1`, the 50% effective dose (ED50) was over 50 mg/kg.
To `Cl.c1ccc2c(c1)CCN=C2N1CCCCC1` belongs over 50 mg/kg; to `O=S(=O)(O)c1cccc2c(S(=O)(=O)O)cccc12.c1ccc(CONC2=NCCc3ccccc32)cc1`, over 50 mg/kg; to `CN(C)NC1=NCCc2ccccc21.Cl`, over 50 mg/kg.
To `CC(C)=NNC1=NCCc2ccccc21.O=S(=O)(O)O` belongs 15 mg/kg; to `CCCC/C=N/NC1=NCCc2ccccc21.Cl`, over 50 mg/kg; to `C/C=N/NC1=NCCc2ccccc21.O=S(=O)(O)O`, 15 mg/kg.
To `O=S(=O)(O)O.c1ccc2c(c1)CCN=C2NN=C1CCCCC1` belongs over 50 mg/kg; to `C/C=C/C(C)=N\NC1=NCCc2ccccc21.O=S(=O)(O)O`, over 50 mg/kg; to `C(=N\NC1=NCCc2ccccc21)/c1ccccc1.Cl`, over 50 mg/kg.
With `COc1cccc(/C=N/NC2=NCCc3ccccc32)c1OC.Cl`, the ED50 was over 50 mg/kg.
To `CC1Cc2ccccc2C(NN)=N1.Cl` (stereo unspecified) belongs 40 mg/kg; to `NNc1nncc2ccccc12` [HYDRALAZINE], 10 mg/kg.
